Converted amounts (≈) assume the structure as drawn. The source made the active and inactive calls. The calls are words filed in the database; no cut-off is given here.
Tests used:
Cryptococcus neoformans = experiment: Antifungal activity against Cryptococcus neoformans CGMCC2.3161 assessed as inhibition of fungal growth by CLSI protocol based microdilution method; type: functional
Candida albicans [1] = experiment: Antifungal activity against fluconazole-resistant Candida albicans 17 assessed as inhibition of fungal growth by CLSI based microdilution method; type: functional
Pichia kudriavzevii = experiment: Antifungal activity against Candida krusei AS 2.1045 assessed as inhibition of fungal growth by CLSI protocol based microdilution method; type: functional
Candida tropicalis = experiment: Antifungal activity against Candida tropicalis CGMCC 2.3739 assessed as inhibition of fungal growth by CLSI protocol based microdilution method; type: functional
Candida albicans [2] = experiment: Antifungal activity against fluconazole-resistant Candida albicans CaR assessed as inhibition of fungal growth by CLSI based microdilution method; type: functional
Candida albicans [3] = experiment: Antifungal activity against fluconazole-resistant Candida albicans 901 assessed as inhibition of fungal growth by CLSI based microdilution method; type: functional
Aspergillus fumigatus = experiment: Antifungal activity against Aspergillus fumigatus CGMCC 3.7795 assessed as inhibition of fungal growth by CLSI protocol based microdilution method; type: functional
Candida parapsilosis = experiment: Antifungal activity against Candida parapsilosis ATCC 22019 assessed as inhibition of fungal growth by CLSI protocol based microdilution method; type: functional; conditions: Lodderomyces parapsilosis
Candida albicans [4] = experiment: Antifungal activity against Candida albicans SC5314 assessed as inhibition of fungal growth by CLSI protocol based microdilution method; type: functional
Candida albicans [5] = experiment: Antifungal activity against fluconazole-resistant Candida albicans 904 assessed as inhibition of fungal growth by CLSI based microdilution method; type: functional
Candida albicans [6] = experiment: Antifungal activity against fluconazole-resistant Candida albicans 632 assessed as inhibition of fungal growth by CLSI based microdilution method; type: functional
Nakaseomyces glabratus = experiment: Antifungal activity against Candida glabrata assessed as inhibition of fungal growth by CLSI protocol based microdilution method; type: functional
Candida albicans [7] = experiment: Antifungal activity against Candida albicans CPCC400616 assessed as inhibition of fungal growth by CLSI protocol based microdilution method; type: functional
[8] = Half life in mouse plasma measured at 180 mins; type: ADME, cell-free
[9] = biological target: T1, Lanosterol 14-alpha demethylase (Candida albicans (strain SC5314 / ATCC MYA-2876) (Yeast), UniProt P10613); experiment: Inhibition of CYP51 in Candida albicans SC5314 assessed as increase in lanosterol level at 0.031 ug/ml incubated for 24 hrs by GC-MS analysis relative to control; conditions: at 0.031 µg/mL
[10] = biological target: T1, Lanosterol 14-alpha demethylase; experiment: Inhibition of CYP51 in Candida albicans SC5314 assessed as increase in obtusifoliol level at 0.031 ug/ml incubated for 24 hrs by GC-MS analysis relative to control; conditions: at 0.031 µg/mL
[11] = Stability in mouse plasma assessed as parent compound remaining measured at 180 mins; type: ADME, cell-free; conditions: read-out: Stability
[12] = biological target: T1, Lanosterol 14-alpha demethylase; experiment: Inhibition of CYP51 in Candida albicans SC5314 assessed as increase in eburicol level at 0.031 ug/ml incubated for 24 hrs by GC-MS analysis relative to control; conditions: at 0.031 µg/mL
[13] = biological target: T1, Lanosterol 14-alpha demethylase; experiment: Inhibition of CYP51 in Candida albicans SC5314 assessed as reduction in ergosterol content at 0.031 ug/ml incubated for 24 hrs by GC-MS analysis relative to control; conditions: at 0.031 µg/mL
[14] = Metabolic stability in mouse liver microsomes assessed as half life; type: ADME, Microsome
Candida albicans [15] = experiment: Antifungal activity against Candida albicans SC5314 assessed as leakage of endogenous substances at 16 ug/ml incubated for 24 hrs by transmission electron microscopic analysis; type: functional, organism-based; conditions: dose 16.0 µg/ml
Candida albicans [16] = experiment: Antifungal activity against Candida albicans SC5314 assessed as fungal cell membrane injury at 16 ug/ml incubated for 24 hrs by transmission electron microscopic analysis; type: functional, organism-based; conditions: dose 16.0 µg/ml
Candida albicans [17] = experiment: Fungicidal activity against Candida albicans assessed as inhibition of fungal growth measured after 48 hrs by CLSI protocol based microdilution method; type: functional
Candida albicans [18] = experiment: Antifungal activity against Candida albicans assessed as inhibition of fungal growth by CLSI protocol based microdilution method; type: functional

T1 sequence (P10613 whole entry): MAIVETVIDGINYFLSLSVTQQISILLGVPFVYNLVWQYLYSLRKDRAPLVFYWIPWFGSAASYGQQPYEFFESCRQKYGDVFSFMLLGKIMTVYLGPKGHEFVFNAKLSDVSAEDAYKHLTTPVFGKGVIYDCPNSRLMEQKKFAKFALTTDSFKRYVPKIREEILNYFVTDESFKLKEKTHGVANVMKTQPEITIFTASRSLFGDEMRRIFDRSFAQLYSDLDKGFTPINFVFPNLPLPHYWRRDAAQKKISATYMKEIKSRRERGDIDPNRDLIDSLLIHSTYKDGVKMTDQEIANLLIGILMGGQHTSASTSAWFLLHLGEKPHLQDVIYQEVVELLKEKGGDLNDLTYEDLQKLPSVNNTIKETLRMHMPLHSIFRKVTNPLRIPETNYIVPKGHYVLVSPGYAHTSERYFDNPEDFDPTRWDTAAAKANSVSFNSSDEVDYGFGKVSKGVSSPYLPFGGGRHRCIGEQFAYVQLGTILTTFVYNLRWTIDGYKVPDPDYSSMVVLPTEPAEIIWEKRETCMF

SMILES | MIC (Cryptococcus neoformans) | MIC (Candida albicans [1]) | MIC (Pichia kudriavzevii) | MIC (Candida tropicalis) | MIC (Candida albicans [2]) | MIC (Candida albicans [3]) | MIC (Aspergillus fumigatus) | MIC (Candida parapsilosis) | MIC (Candida albicans [4]) | MIC (Candida albicans [5]) | MIC (Candida albicans [6]) | MIC (Nakaseomyces glabratus) | MIC (Candida albicans [7]) | other results
CCCNC(=O)/C=C/c1ccc(COC(Cn2ccnc2)c2ccc(Cl)cc2Cl)cc1 (stereo unspecified) | 4 µg/mL (≈ 8.73 µM) | 32 µg/mL (≈ 69.8 µM) | 4 µg/mL (≈ 8.73 µM) | 8 µg/mL (≈ 17.5 µM) | 64 µg/mL (≈ 140 µM) | 16 µg/mL (≈ 34.9 µM) | 4 µg/mL (≈ 8.73 µM) | 0.125 µg/mL (≈ 0.273 µM) | 0.03 µg/mL (≈ 0.0654 µM) | 16 µg/mL (≈ 34.9 µM) | 2 µg/mL (≈ 4.36 µM) | 8 µg/mL (≈ 17.5 µM) | 0.06 µg/mL (≈ 0.131 µM) | 
Cc1ccc(NC(=O)/C=C/c2ccc(COC(Cn3ccnc3)c3ccc(Cl)cc3Cl)cc2)cc1 (stereo unspecified) | 0.125 µg/mL (≈ 0.247 µM) | 1 µg/mL (≈ 1.97 µM) | 16 µg/mL (≈ 31.6 µM) | 64 µg/mL (≈ 126 µM) | 4 µg/mL (≈ 7.9 µM) | 1 µg/mL (≈ 1.97 µM) | 16 µg/mL (≈ 31.6 µM) | 0.125 µg/mL (≈ 0.247 µM) | 0.06 µg/mL (≈ 0.118 µM) | 2 µg/mL (≈ 3.95 µM) | 0.25 µg/mL (≈ 0.494 µM) | 16 µg/mL (≈ 31.6 µM) | 0.03 µg/mL (≈ 0.0592 µM) | 
O=C(/C=C/c1ccc(COC(Cn2ccnc2)c2ccc(Cl)cc2Cl)cc1)Nc1ccc(Br)cc1 (stereo unspecified) | 4 µg/mL (≈ 7 µM) | 32 µg/mL (≈ 56 µM) | 16 µg/mL (≈ 28 µM) | 32 µg/mL (≈ 56 µM) | 16 µg/mL (≈ 28 µM) | 8 µg/mL (≈ 14 µM) | 16 µg/mL (≈ 28 µM) | 0.25 µg/mL (≈ 0.438 µM) | 0.03 µg/mL (≈ 0.0525 µM) | 4 µg/mL (≈ 7 µM) | 4 µg/mL (≈ 7 µM) | 8 µg/mL (≈ 14 µM) | 0.06 µg/mL (≈ 0.105 µM) | 
CCNC(=O)/C=C/c1ccc(COC(Cn2ccnc2)c2ccc(Cl)cc2Cl)cc1 (stereo unspecified) | 8 µg/mL (≈ 18 µM) | 128 µg/mL (≈ 288 µM) | 32 µg/mL (≈ 72 µM) | 4 µg/mL (≈ 9 µM) | 128 µg/mL (≈ 288 µM) | 16 µg/mL (≈ 36 µM) | 8 µg/mL (≈ 18 µM) | 8 µg/mL (≈ 18 µM) | 1 µg/mL (≈ 2.25 µM) | 16 µg/mL (≈ 36 µM) | 2 µg/mL (≈ 4.5 µM) | 16 µg/mL (≈ 36 µM) | 0.5 µg/mL (≈ 1.13 µM) | 
OC(Cn1cncn1)(Cn1cncn1)c1ccc(F)cc1F [FLUCONAZOLE] | 4 µg/mL (≈ 13.1 µM) | > 128 µg/mL | 32 µg/mL (≈ 104 µM) | 2 µg/mL (≈ 6.53 µM) | > 128 µg/mL | > 128 µg/mL | > 128 µg/mL | 4 µg/mL (≈ 13.1 µM) | 0.5 µg/mL (≈ 1.63 µM) | > 128 µg/mL | > 128 µg/mL | 32 µg/mL (≈ 104 µM) | 4 µg/mL (≈ 13.1 µM) | half-life [8]: > 6 h; inhibition (INH) [9]: Active; inhibition (INH) [10]: Active; remaining at 3 h [11]: 116%; inhibition (INH) [12]: Active; inhibition (INH) [13]: 48.4%; half-life [14]: > 2 h; Activity (Candida albicans [15]): Active; Activity (Candida albicans [16]): Active; MFC (Candida albicans [17]): > 128 µg/mL; MIC (Candida albicans [18]): > 128 µg/mL
Cc1ccccc1NC(=O)/C=C/c1ccc(COC(Cn2ccnc2)c2ccc(Cl)cc2Cl)cc1 (stereo unspecified) | 2 µg/mL (≈ 3.95 µM) | 128 µg/mL (≈ 253 µM) | 16 µg/mL (≈ 31.6 µM) | 16 µg/mL (≈ 31.6 µM) | 16 µg/mL (≈ 31.6 µM) | 4 µg/mL (≈ 7.9 µM) | 2 µg/mL (≈ 3.95 µM) | 0.5 µg/mL (≈ 0.987 µM) | 0.03 µg/mL (≈ 0.0592 µM) | 2 µg/mL (≈ 3.95 µM) | 2 µg/mL (≈ 3.95 µM) | 64 µg/mL (≈ 126 µM) | 0.125 µg/mL (≈ 0.247 µM) | 
O=C(/C=C/c1ccc(COC(Cn2ccnc2)c2ccc(Cl)cc2Cl)cc1)NC1CC1 (stereo unspecified) | 16 µg/mL (≈ 35.1 µM) | 32 µg/mL (≈ 70.1 µM) | 64 µg/mL (≈ 140 µM) | 4 µg/mL (≈ 8.76 µM) | 128 µg/mL (≈ 280 µM) | 2 µg/mL (≈ 4.38 µM) | 2 µg/mL (≈ 4.38 µM) | 1 µg/mL (≈ 2.19 µM) | 0.125 µg/mL (≈ 0.274 µM) | 4 µg/mL (≈ 8.76 µM) | 1 µg/mL (≈ 2.19 µM) | 64 µg/mL (≈ 140 µM) | 0.25 µg/mL (≈ 0.548 µM) | 
O=C(/C=C/c1ccc(COC(Cn2ccnc2)c2ccc(Cl)cc2Cl)cc1)Nc1cccc(Br)c1 (stereo unspecified) | 8 µg/mL (≈ 14 µM) | 128 µg/mL (≈ 224 µM) | 64 µg/mL (≈ 112 µM) | 64 µg/mL (≈ 112 µM) | 128 µg/mL (≈ 224 µM) | 4 µg/mL (≈ 7 µM) | 4 µg/mL (≈ 7 µM) | 0.125 µg/mL (≈ 0.219 µM) | 0.125 µg/mL (≈ 0.219 µM) | 2 µg/mL (≈ 3.5 µM) | 4 µg/mL (≈ 7 µM) | 64 µg/mL (≈ 112 µM) | 0.25 µg/mL (≈ 0.438 µM) | 
CC(C)NC(=O)/C=C/c1ccc(COC(Cn2ccnc2)c2ccc(Cl)cc2Cl)cc1 (stereo unspecified) | 8 µg/mL (≈ 17.5 µM) | 16 µg/mL (≈ 34.9 µM) | 4 µg/mL (≈ 8.73 µM) | 4 µg/mL (≈ 8.73 µM) | 16 µg/mL (≈ 34.9 µM) | 4 µg/mL (≈ 8.73 µM) | 2 µg/mL (≈ 4.36 µM) | 2 µg/mL (≈ 4.36 µM) | 0.5 µg/mL (≈ 1.09 µM) | 8 µg/mL (≈ 17.5 µM) | 1 µg/mL (≈ 2.18 µM) | 4 µg/mL (≈ 8.73 µM) | 0.125 µg/mL (≈ 0.273 µM) | 
NC(=O)/C=C/c1ccc(COC(Cn2ccnc2)c2ccc(Cl)cc2Cl)cc1 (stereo unspecified) | 16 µg/mL (≈ 38.4 µM) | 128 µg/mL (≈ 307 µM) | 64 µg/mL (≈ 154 µM) | 8 µg/mL (≈ 19.2 µM) | 128 µg/mL (≈ 307 µM) | 32 µg/mL (≈ 76.9 µM) | 64 µg/mL (≈ 154 µM) | 4 µg/mL (≈ 9.61 µM) | 1 µg/mL (≈ 2.4 µM) | 32 µg/mL (≈ 76.9 µM) | 16 µg/mL (≈ 38.4 µM) | 64 µg/mL (≈ 154 µM) | 2 µg/mL (≈ 4.8 µM) | 

Source: ChEMBL document CHEMBL5550210, “Discovery of Novel α,β-Unsaturated Amide Derivatives as Candidate Antifungals to Overcome Fungal Resistance” (J Med Chem, 2024)
